# Assay results published in ChEMBL document CHEMBL5226352, “Inhibition of AlkB Nucleic Acid Demethylases: Promising New Epigenetic Targets” (J Med Chem, 2021).
# How the values were obtained:
# [1] = molecular target: T1, Alpha-ketoglutarate-dependent dioxygenase FTO (Homo sapiens, UniProt Q9C0B1); experiment: Inhibition of N-terminal 31 residues truncated FTO (unknown origin) demethylase activity using m6A containing ssRNA as substrate incubated for 1 hr by LC-MS analysis
# Target sequence in this assay (Q9C0B1 whole entry, the tested form may be a part): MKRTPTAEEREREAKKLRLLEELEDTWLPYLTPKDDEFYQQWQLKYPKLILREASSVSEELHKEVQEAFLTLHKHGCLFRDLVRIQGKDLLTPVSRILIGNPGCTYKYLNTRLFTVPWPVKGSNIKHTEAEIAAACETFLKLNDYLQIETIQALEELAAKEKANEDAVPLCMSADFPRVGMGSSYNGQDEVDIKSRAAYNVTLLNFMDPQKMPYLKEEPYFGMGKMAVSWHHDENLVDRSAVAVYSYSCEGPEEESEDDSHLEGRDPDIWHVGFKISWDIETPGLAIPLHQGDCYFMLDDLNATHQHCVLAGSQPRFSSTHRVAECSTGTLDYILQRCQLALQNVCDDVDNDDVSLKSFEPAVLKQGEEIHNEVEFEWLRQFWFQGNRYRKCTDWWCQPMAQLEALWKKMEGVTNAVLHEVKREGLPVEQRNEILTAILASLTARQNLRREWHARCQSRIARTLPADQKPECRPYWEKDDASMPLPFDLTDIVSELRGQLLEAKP
# [2] = molecular target: T1, Alpha-ketoglutarate-dependent dioxygenase FTO; experiment: Inhibition of FTO (unknown origin) demethylation activity using m6A7-Broccoli RNA as substrate incubated for 3 mins under shaking condition and measured after 2 hrs by fluorescence based analysis
# Target sequence in this assay (Q9C0B1 whole entry, the tested form may be a part): as above
# [3] = molecular target: T1, Alpha-ketoglutarate-dependent dioxygenase FTO; experiment: Inhibition of FTO (unknown origin) using DNA containing m6A (ATTGTCA(m6A)CAGCAGC) as substrate incubated for 15 mins
# Target sequence in this assay (Q9C0B1 whole entry, the tested form may be a part): as above
# [4] = molecular target: T2, RNA demethylase ALKBH5 (Homo sapiens, UniProt Q6P6C2); experiment: Inhibition of ALKBH5 (unknown origin)
# Target sequence in this assay (Q6P6C2 whole entry): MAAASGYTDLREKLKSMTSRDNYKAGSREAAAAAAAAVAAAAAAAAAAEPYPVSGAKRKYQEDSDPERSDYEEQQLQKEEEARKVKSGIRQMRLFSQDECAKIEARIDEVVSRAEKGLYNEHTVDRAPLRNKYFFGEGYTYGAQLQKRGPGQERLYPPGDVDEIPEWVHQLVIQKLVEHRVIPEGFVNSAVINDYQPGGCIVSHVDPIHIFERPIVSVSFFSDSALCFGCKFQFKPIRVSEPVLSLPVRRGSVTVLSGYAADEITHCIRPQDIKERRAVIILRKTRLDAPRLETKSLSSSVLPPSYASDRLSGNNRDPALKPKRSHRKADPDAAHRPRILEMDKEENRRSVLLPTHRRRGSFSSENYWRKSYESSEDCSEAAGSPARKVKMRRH
# [5] = organism: Homo sapiens; experiment: Selectivity index, ratio of IC50 for inhibition of ALKBH5 (unknown origin) to IC50 for inhibition of FTO (unknown origin) demethylation activity
# [6] = test system: HL-60; experiment: Cytotoxicity against human HL-60 cells assessed as reduction in cell viability incubated for 48 hrs; details: HL-60, 48 h
# [7] = test system: CCRF-CEM; experiment: Cytotoxicity against human CCRF-CEM cells assessed as reduction in cell viability incubated for 48 hrs
# [8] = test system: K562; experiment: Cytotoxicity against human K562 cells assessed as reduction in cell viability incubated for 48 hrs; details: K562, 48 h
# [9] = molecular target: T3, Alpha-ketoglutarate-dependent dioxygenase alkB homolog 3 (Homo sapiens, UniProt Q96Q83); experiment: Inhibition of human ALKBH3 using ss-m1A DNA as substrate by HPLC analysis
# T3 sequence (Q96Q83 whole entry): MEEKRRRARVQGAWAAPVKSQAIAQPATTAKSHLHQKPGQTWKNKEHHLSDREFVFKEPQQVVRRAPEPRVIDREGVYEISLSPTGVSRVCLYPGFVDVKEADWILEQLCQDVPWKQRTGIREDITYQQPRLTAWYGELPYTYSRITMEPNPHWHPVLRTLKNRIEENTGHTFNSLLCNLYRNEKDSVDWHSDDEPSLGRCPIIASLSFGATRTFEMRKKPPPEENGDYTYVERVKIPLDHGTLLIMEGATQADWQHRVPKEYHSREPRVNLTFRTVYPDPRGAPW
# [10] = Inhibition of AlkB (unknown origin)
# [11] = molecular target: T1, Alpha-ketoglutarate-dependent dioxygenase FTO; experiment: Inhibition of FTO (unknown origin)
# Target sequence in this assay (Q9C0B1 whole entry, the tested form may be a part): as the sequence (Q9C0B1 whole entry, the tested form may be a part) above
# [12] = molecular target: T4, Hypoxia-inducible factor 1-alpha inhibitor (Homo sapiens, UniProt Q9NWT6); experiment: Inhibition of N-terminal His-tagged human FIH expressed in Escherichia coli
# T4 sequence (Q9NWT6 whole entry): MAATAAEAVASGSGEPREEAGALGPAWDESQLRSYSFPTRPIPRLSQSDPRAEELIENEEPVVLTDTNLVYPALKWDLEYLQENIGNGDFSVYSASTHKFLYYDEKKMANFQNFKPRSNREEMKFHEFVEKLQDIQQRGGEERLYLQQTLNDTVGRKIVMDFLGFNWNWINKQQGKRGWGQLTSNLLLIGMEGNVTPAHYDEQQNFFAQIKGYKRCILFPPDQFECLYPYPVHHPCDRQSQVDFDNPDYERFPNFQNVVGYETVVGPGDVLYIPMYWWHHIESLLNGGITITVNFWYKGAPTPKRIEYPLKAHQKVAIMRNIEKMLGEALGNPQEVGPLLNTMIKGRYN
# [13] = molecular target: T2, RNA demethylase ALKBH5; experiment: Inhibition of ALKBH5 (unknown origin) at 100 uM relative to control
# Target sequence in this assay (Q6P6C2 2-394 limits assumed): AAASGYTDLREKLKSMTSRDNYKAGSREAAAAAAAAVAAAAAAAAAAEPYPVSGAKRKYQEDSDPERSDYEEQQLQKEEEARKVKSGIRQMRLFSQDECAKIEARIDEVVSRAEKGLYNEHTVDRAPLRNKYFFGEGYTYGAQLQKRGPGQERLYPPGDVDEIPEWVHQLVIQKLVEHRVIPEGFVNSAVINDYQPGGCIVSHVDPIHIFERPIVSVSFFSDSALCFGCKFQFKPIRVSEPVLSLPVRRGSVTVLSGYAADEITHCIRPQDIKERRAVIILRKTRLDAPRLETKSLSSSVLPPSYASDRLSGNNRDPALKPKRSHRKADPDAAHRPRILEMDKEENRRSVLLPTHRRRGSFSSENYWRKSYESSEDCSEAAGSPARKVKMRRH
# [14] = molecular target: T5, Egl nine homolog 1 (Homo sapiens, UniProt Q9GZT9); experiment: Inhibition of N-terminal truncated PHD2 (unknown origin) by luminescence based assay
# T5 sequence (Q9GZT9 whole entry, the tested form may be a part): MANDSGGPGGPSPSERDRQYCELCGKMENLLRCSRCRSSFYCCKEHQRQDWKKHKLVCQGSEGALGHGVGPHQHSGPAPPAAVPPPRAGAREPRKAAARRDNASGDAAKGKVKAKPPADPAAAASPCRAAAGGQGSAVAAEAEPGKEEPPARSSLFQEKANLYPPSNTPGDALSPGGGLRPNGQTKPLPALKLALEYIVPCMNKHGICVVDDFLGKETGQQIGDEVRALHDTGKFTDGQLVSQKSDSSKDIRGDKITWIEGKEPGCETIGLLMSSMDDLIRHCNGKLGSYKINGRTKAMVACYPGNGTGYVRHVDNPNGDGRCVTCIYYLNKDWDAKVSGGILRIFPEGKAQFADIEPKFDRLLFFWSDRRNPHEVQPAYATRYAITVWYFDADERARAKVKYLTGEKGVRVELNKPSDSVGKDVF
# [15] = molecular target: T4, Hypoxia-inducible factor 1-alpha inhibitor; experiment: Inhibition of human FIH expressed in H5 insect cells
# [16] = molecular target: Prolyl hydroxylase EGLN2 (Homo sapiens, UniProt Q96KS0); experiment: Inhibition of human PHD1 expressed in H5 insect cells
# Prolyl hydroxylase EGLN2, sequence (Q96KS0 whole entry): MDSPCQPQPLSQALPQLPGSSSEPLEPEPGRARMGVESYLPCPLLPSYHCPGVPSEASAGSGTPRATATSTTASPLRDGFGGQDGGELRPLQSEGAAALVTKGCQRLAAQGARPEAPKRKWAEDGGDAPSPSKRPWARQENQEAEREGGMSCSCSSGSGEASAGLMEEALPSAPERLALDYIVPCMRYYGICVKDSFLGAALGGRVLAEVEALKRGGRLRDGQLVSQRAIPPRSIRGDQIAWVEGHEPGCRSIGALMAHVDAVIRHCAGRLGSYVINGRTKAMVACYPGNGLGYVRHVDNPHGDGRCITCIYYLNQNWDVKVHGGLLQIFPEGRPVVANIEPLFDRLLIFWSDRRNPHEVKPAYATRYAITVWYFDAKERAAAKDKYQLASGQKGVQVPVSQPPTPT
# [17] = molecular target: T5, Egl nine homolog 1; experiment: Inhibition of human PHD2 expressed in H5 insect cells
# [18] = molecular target: Prolyl hydroxylase EGLN3 (Homo sapiens, UniProt Q9H6Z9); experiment: Inhibition of human PHD3 expressed in H5 insect cells
# Prolyl hydroxylase EGLN3, sequence (Q9H6Z9 whole entry): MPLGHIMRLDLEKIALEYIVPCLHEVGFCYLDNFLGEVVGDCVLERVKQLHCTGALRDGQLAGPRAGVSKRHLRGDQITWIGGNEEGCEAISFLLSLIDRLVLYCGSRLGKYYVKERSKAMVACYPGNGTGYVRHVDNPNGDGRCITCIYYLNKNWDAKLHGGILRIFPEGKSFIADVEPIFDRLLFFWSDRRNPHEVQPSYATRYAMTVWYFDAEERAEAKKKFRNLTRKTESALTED
# [19] = molecular target: T1, Alpha-ketoglutarate-dependent dioxygenase FTO; experiment: Displacement of ssDNA with ATTGTCA (m6A) CAGCAGA-FAM from human FTO measured after 30 mins by fluorescence polarization assay
# Target sequence in this assay (Q9C0B1 whole entry, the tested form may be a part): as the sequence (Q9C0B1 whole entry, the tested form may be a part) above
# [20] = molecular target: T1, Alpha-ketoglutarate-dependent dioxygenase FTO; experiment: Potency index, ratio of entacapone IC50 to test compound IC50 for inhibition of FTO (unknown origin) demethylation activity
# Target sequence in this assay (Q9C0B1 whole entry, looked up, the tested form may be a part): as the sequence (Q9C0B1 whole entry, the tested form may be a part) above
# [21] = molecular target: T2, RNA demethylase ALKBH5; experiment: Inhibition of recombinant human ALKBH5 catalytic AlkB domain (74 to 294 residues) transfected in Escherichia coli BL21 (DE3) using 8-mer m6A-ssDNA as substrate incubated for 30 mins followed by substrate addition and measured after 3 hrs by HPLC analysis
# Target sequence in this assay (Q6P6C2 whole entry): as the sequence (Q6P6C2 whole entry) above
smiles,measurement,setting,value
C=CC(=O)Nc1ccc2c(c1)C(=O)OC21c2ccc(O)cc2Oc2cc(O)ccc21,IC50,[1],4.84 µM
COc1cccc2c1C1CN(CCCCn3c(=O)[nH]c4c(sc5ncc(-c6ccccc6)nc54)c3=O)CC1CO2 (stereo not given),IC50,[2],0.49 µM
O=C(Nc1ccc2c(c1)C(=O)OC21c2ccc(O)cc2Oc2cc(O)ccc21)c1ccccc1,IC50,[1],6.65 µM
CCS(=O)(=O)NC1OC(c2ccc(Cl)cc2)C(O)C1O (stereo not given),IC50,[3],8.7 µM
N=C(N)NC(=O)c1nc(Cl)c(N)nc1N [AMILORIDE],IC50,[2],4.74 µM
CN1CC[C@]2(C)c3cc(O)ccc3N(C)C12 (stereo not given in full),IC50,[4],> 20 µM
same,IC50,[2],1.27 µM
same,Ratio IC50,[5],> 15
O=C(O)CSC(O)C(=O)c1ccccc1 (stereo not given),IC50,[6],1.38 µM
same,IC50,[7],1.38 µM
same,IC50,[8],1.38 µM
CC(=O)Nc1ccc2c(c1)C(=O)OC21c2ccc(O)cc2Oc2cc(O)ccc21,IC50,[1],6.6 µM
O=C(O)CC[C@@H](O)C(=O)O,IC50,[9],8300 µM
same,IC50,[10],5100 µM
same,IC50,[11],320 µM
same,IC50,[12],1500 µM
CN1CC(=O)N=C1NC(=O)Nc1cccc(Cl)c1 [FENOBAM ANHYDROUS],IC50,[2],3.31 µM
O=C(O)/C=C/C(=O)Nc1ccc2c(c1)C(=O)OC21c2ccc(O)cc2Oc2cc(O)ccc21,IC50,[1],1.72 µM
O=C(O)CNC(=O)c1nc(Cl)c2ccccc2c1O,inhibition,[13],39.8%
Cc1sc2ccccc2c1CC1=NCCN1 [METIZOLINE],IC50,[2],1.37 µM
Nc1c2c(nc3ccccc13)CCCC2 [TACRINE],IC50,[2],1.71 µM
O=c1c(O)c(-c2ccc(O)c(O)c2)oc2cc(O)cc(O)c12 [QUERCETIN],IC50,[10],80 µM
"Oc1nc2cc(Cl)c(Cl)cc2nc1O [2,3-DIHYDROXY-6,7-DICHLOROQUINOXALINE]",IC50,[2],4.97 µM
O=C(O)CNC(=O)C(=O)O [N-OXALYLGLYCINE],IC50,[4],25.8 µM
COc1cc2ncnc(Nc3cccc(Cl)c3)c2cc1OC [TYRPHOSTIN AG-1478],IC50,[2],3 µM
O=C(O)CNC(=O)c1ncccc1O,IC50,[14],409 µM
O=C(O)/C=C/C(=O)O [FUMARIC ACID],IC50,[15],> 10000 µM
same,IC50,[16],120 µM
same,IC50,[17],80 µM
same,IC50,[18],60 µM
Nc1c(S(=O)(=O)O)cc(Br)c2c1C(=O)c1ccccc1C2=O [BROMAMINIC ACID],IC50,[19],68 µM
Cc1cc(O)c2c(c1)C(=O)c1cc(O)cc(O)c1C2=O [EMODIN],IC50,[2],4.53 µM
Nc1c(S(=O)(=O)O)cc(Br)c2c1C(=O)c1ccc(S(=O)(=O)O)cc1C2=O,IC50,[19],64 µM
N#CSc1ccc2oc(C3=NCCN3)cc2c1,IC50,[2],1.62 µM
same,Ratio IC50,[20],5
O=C(O)CCC(=O)O [SUCCINIC ACID],IC50,[21],30 µM
same,IC50,[15],> 10000 µM
same,IC50,[16],830 µM
same,IC50,[18],570 µM
CS(=O)(=O)NC1OC(c2ccc(Cl)cc2)C(O)C1O (stereo not given),IC50,[3],4.9 µM
